Test results as given in US8501433B2, “Solvent for chromogenic substrate solution” (Pierce Biotechnology, Inc., priority 2002, dated 2013).

Test: Dissolution of X-gal (and antibiotics) in non-toxic solvents
Assay type: physicochemical
Conditions: non-toxic solvent solutions of the invention
Procedure: A combination of essential oil was extracted with chloroform in order to remove part of the oil phase, and create a semi-precipitated emulsion. For example, 20 ml of citrus extract, pine terpenoids, limonene oils and linseed oil was mixed with 20 ml of Chloroform by vigorously shaking in a 50 ml falcon tube. The resulting mix was let stand for approximately one day, and then the upper phase was transferred to a 15 ml falcon tube.

| Compound | dissolution in the same solutions as X-gal |
| --- | --- |
| O=C(N[C@H](CO)[C@H](O)c1ccc([N+](=O)[O-])cc1)C(Cl)Cl [Chloramphenicol] | stable dissolution |
| CN(C)[C@@H]1C(=O)C(C(N)=O)=C(O)[C@@]2(O)C(=O)C3=C(O)c4c(O)cccc4[C@@](C)(O)[C@H]3C[C@@H]12 [Tetracyclin] | stable dissolution |
| CC1(C)S[C@@H]2[C@H](NC(=O)[C@H](N)c3ccccc3)C(=O)N2[C@H]1C(=O)O [Ampicillin] | stable dissolution |
